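Interpolation was linear, between the two tested concentrations surrounding the appropriate level; five concentrations were tested over 48 hours in 96-well plates. Here, GI50 denotes the concentration required for 50% inhibition of growth.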 Active and inactive are the calls of the source. Rule as the data show it: active = GI50 up to about 1.1 µM and inactive = higher. A value given as a limit tells only on which side of the number the result lay.

Test systems include SW-620; T47D; LOX IMVI; ACHN; SK-MEL-2; KM12; COLO 205; CAKI-1; Malme-3M; SF-295; MDA-MB-435; U-251; NCI-H226; HL-60; DU-145; OVCAR-5; HOP-92; MDA-MB-231; SR.
Holding throughout (experiment): NCI tumour cell line growth inhibition, 48 h

For `CN(C)CCCc1c2ccccc2nc2ccc(Cl)cc12`, the GI50 in the experiment on SW-620 is 12.9 µM (inactive); in the experiment on T47D, 36.5 µM (inactive); in the experiment with LOX IMVI, 14.2 µM (inactive); in the experiment on ACHN it was 14.9 µM (inactive); in the experiment with SK-MEL-2, 19.9 µM (inactive); with KM12, 17.9 µM (inactive). For the same molecule, the GI50 is 14.9 µM (inactive) in the experiment on COLO 205; 15.2 µM (inactive) in the experiment with CAKI-1; 15.4 µM (inactive) in the experiment with Malme-3M; 16.2 µM (inactive) with SF-295; 13.3 µM (inactive) in the experiment on MDA-MB-435; 12.2 µM (inactive) in the experiment on U-251. Moreover, the GI50 with NCI-H226 was 24.2 µM (inactive); with HL-60, 16 µM (inactive); with DU-145, 21.4 µM (inactive); in the experiment with OVCAR-5, 15.2 µM (inactive); in the experiment with HOP-92, 9.53 µM (inactive); with MDA-MB-231 it was 16.6 µM (inactive). Further, the GI50 in the experiment on SR was 18.5 µM (inactive).

In the case of `O=[N+]([O-])c1cccc2nc3ccccc3c(NCCCn3ccnc3[N+](=O)[O-])c12`, the GI50 in the experiment with SW-620 was < 0.0001 µM (active); in the experiment with T47D, 0.0407 µM (active); in the experiment on LOX IMVI it was 0.0158 µM (active); in the experiment on ACHN it was 0.000161 µM (active); in the experiment on SK-MEL-2, 0.000235 µM (active); in the experiment with KM12, 0.000114 µM (active). The GI50 with COLO 205 was 0.000109 µM (active); in the experiment with CAKI-1, 0.000385 µM (active); in the experiment on Malme-3M it was 0.00023 µM (active); in the experiment on SF-295, 0.0117 µM (active); in the experiment on MDA-MB-435 it was < 0.0001 µM (active); in the experiment with U-251 it was 0.000213 µM (active). Further, the GI50 was 0.000245 µM (active) with NCI-H226; 0.000889 µM (active) in the experiment with HL-60; < 0.0001 µM (active) in the experiment on DU-145; 0.00017 µM (active) with OVCAR-5; 0.000187 µM (active) with HOP-92; 0.000168 µM (active) in the experiment on MDA-MB-231. Further, the GI50 with SR was 0.02 µM (active).

As for `O=C(Nc1ccc(-c2cn3ccccc3n2)cc1)c1cc(Br)ccc1O`, the GI50 in the experiment on SW-620, with T47D, with LOX IMVI, in the experiment on ACHN, with SK-MEL-2 and in the experiment on KM12 was > 100 µM (inactive) throughout. Moreover, the GI50 in the experiment on COLO 205, in the experiment with CAKI-1, in the experiment on Malme-3M, in the experiment on SF-295, in the experiment on MDA-MB-435 and in the experiment with U-251 was > 100 µM (inactive) each time. The GI50 in the experiment on NCI-H226, in the experiment on HL-60, in the experiment on DU-145, in the experiment on OVCAR-5, in the experiment with HOP-92 and with MDA-MB-231 was > 100 µM (inactive) throughout. The GI50 with SR is > 100 µM (inactive).

As to `Cc1cccc2c(N)c3cccc(C(=O)NCC[N+](C)(C)Cc4c([N+](=O)[O-])ncn4C)c3nc12`, the GI50 with SW-620 is 18.9 µM (inactive); in the experiment with T47D, 67.8 µM (inactive); with LOX IMVI it was 11.4 µM (inactive); in the experiment on ACHN it was 10.8 µM (inactive); in the experiment on SK-MEL-2 it was > 80.5 µM (inactive); in the experiment on KM12, 29 µM (inactive). Moreover, the GI50 in the experiment on COLO 205 is 24.3 µM (inactive); with CAKI-1, 2.69 µM (inactive); in the experiment on Malme-3M, > 43.6 µM (inactive); in the experiment with SF-295 it was 25.4 µM (inactive); with MDA-MB-435 it was 52.6 µM (inactive); in the experiment with U-251, 29.9 µM (inactive). In addition, the GI50 in the experiment with NCI-H226 was 29.2 µM (inactive); in the experiment on HL-60, 5.92 µM (inactive); in the experiment on DU-145, 46.8 µM (inactive); with OVCAR-5 it was 23.6 µM (inactive); with HOP-92, 40.6 µM (inactive); in the experiment on MDA-MB-231, 38.5 µM (inactive). In the experiment with SR, the GI50 is 23 µM (inactive).

Consider `COc1cc(NCc2ccc3nc(OC)c(OC)nc3c2)cc(OC)c1OC`, for which the GI50 was > 100 µM (inactive) in the experiment on SW-620; 18.6 µM (inactive) with T47D; > 100 µM (inactive) in the experiment on LOX IMVI; > 100 µM (inactive) in the experiment on ACHN; > 100 µM (inactive) with SK-MEL-2; > 100 µM (inactive) with KM12. Moreover, the GI50 with COLO 205 is > 100 µM (inactive); in the experiment on CAKI-1, > 100 µM (inactive); with Malme-3M it was > 100 µM (inactive); in the experiment with SF-295, 80.5 µM (inactive); with MDA-MB-435, > 100 µM (inactive); with U-251, > 100 µM (inactive). Moreover, the GI50 in the experiment with NCI-H226, with HL-60, with DU-145, in the experiment with OVCAR-5, in the experiment on HOP-92 and in the experiment on MDA-MB-231 was > 100 µM (inactive) in each case. The GI50 in the experiment on SR was 89.9 µM (inactive).

Turning to `Cc1cc(CC(O)(C(F)(F)F)C(F)(F)F)cc(CC(O)(C(F)(F)F)C(F)(F)F)n1`, the GI50 in the experiment with SW-620 is > 100 µM (inactive); with T47D, 2.67 µM (inactive); with LOX IMVI it was 2.42 µM (inactive); in the experiment on ACHN, 2.79 µM (inactive); in the experiment on SK-MEL-2, 2.44 µM (inactive); in the experiment with KM12, 2.27 µM (inactive). Also, the GI50 in the experiment on COLO 205 was 1.87 µM (inactive); with CAKI-1, > 100 µM (inactive); in the experiment on Malme-3M, 1.56 µM (inactive); with SF-295 it was 3.06 µM (inactive); in the experiment with MDA-MB-435 it was 2.88 µM (inactive); in the experiment on U-251, 3.3 µM (inactive). The GI50 was 2.72 µM (inactive) in the experiment with NCI-H226; 3.02 µM (inactive) in the experiment with HL-60; 2.74 µM (inactive) with DU-145; 6.79 µM (inactive) in the experiment with OVCAR-5; 2.55 µM (inactive) with HOP-92; 3.23 µM (inactive) in the experiment with MDA-MB-231. Moreover, the GI50 in the experiment with SR is 4.08 µM (inactive).

`Cc1ccnc2sc3ccccc3c(=O)c12`: the GI50 in the experiment with SW-620 is 44.3 µM (inactive); with T47D, 55.3 µM (inactive); in the experiment on LOX IMVI, 29.5 µM (inactive); with ACHN it was 35.1 µM (inactive); in the experiment on SK-MEL-2, 81.1 µM (inactive); with KM12, 53.7 µM (inactive). Further, the GI50 in the experiment on COLO 205 was 45.7 µM (inactive); in the experiment with CAKI-1, 23.6 µM (inactive); in the experiment with Malme-3M, 51.9 µM (inactive); with SF-295, 50.1 µM (inactive); with MDA-MB-435, 52.6 µM (inactive); in the experiment with U-251 it was 56.8 µM (inactive). In addition, the GI50 in the experiment with NCI-H226 is 36.1 µM (inactive); in the experiment on HL-60, 30 µM (inactive); with DU-145, 84.3 µM (inactive); with OVCAR-5 it was 48.5 µM (inactive); with HOP-92, 54 µM (inactive); in the experiment with MDA-MB-231 it was 29.3 µM (inactive). The GI50 in the experiment with SR is 54.8 µM (inactive).

With `S=C1Cc2c(-c3ccc(Cl)cc3)cc(-c3ccccc3)nc2-c2ccccc2N1`, the GI50 with SW-620 was 19.1 µM (inactive); in the experiment with T47D, 19.8 µM (inactive); in the experiment on LOX IMVI, 13.9 µM (inactive); in the experiment with ACHN, 7.82 µM (inactive); with SK-MEL-2, 17.7 µM (inactive); in the experiment with KM12, 4.85 µM (inactive). For the same molecule, the GI50 with COLO 205 was 16 µM (inactive); in the experiment with CAKI-1, 3.95 µM (inactive); with Malme-3M, 13.8 µM (inactive); with SF-295, 14.2 µM (inactive); with MDA-MB-435, 15 µM (inactive); with U-251 it was 4.03 µM (inactive). The GI50 was 13.1 µM (inactive) with NCI-H226; 30.6 µM (inactive) with HL-60; 22 µM (inactive) in the experiment on DU-145; 24.5 µM (inactive) in the experiment on OVCAR-5; 8.04 µM (inactive) in the experiment with HOP-92; 7.8 µM (inactive) in the experiment with MDA-MB-231. The GI50 with SR was > 100 µM (inactive).

With `CC(C)C(Cl)CC/C(CBr)=C(\Cl)CCl` (centres undefined), the GI50 is 1.8 µM (inactive) in the experiment on SW-620; 1.5 µM (inactive) in the experiment on T47D; 0.24 µM (active) with LOX IMVI; 16 µM (inactive) in the experiment with ACHN; 2.1 µM (inactive) in the experiment with SK-MEL-2; 3.21 µM (inactive) in the experiment with KM12. Besides, the GI50 was 5.46 µM (inactive) with COLO 205; 7.08 µM (inactive) in the experiment with CAKI-1; 6.71 µM (inactive) in the experiment on Malme-3M; 16.3 µM (inactive) in the experiment on SF-295; 3.2 µM (inactive) with MDA-MB-435; 10.6 µM (inactive) in the experiment on U-251. Also, the GI50 with NCI-H226 was 6.7 µM (inactive); with HL-60 it was 0.54 µM (active); with DU-145, 13.4 µM (inactive); in the experiment with OVCAR-5, 15.4 µM (inactive); with HOP-92, 2.25 µM (inactive); with MDA-MB-231 it was 3.3 µM (inactive). Also, the GI50 in the experiment on SR was 1.69 µM (inactive).

`CC(=O)/C=C1\Nc2ccc([N+](=O)[O-])cc2N\C1=C/C(C)=O`: the GI50 is 64.6 µM (inactive) with SW-620; 33.8 µM (inactive) in the experiment on T47D; 73.5 µM (inactive) in the experiment with LOX IMVI; 42.5 µM (inactive) in the experiment with ACHN; 29.2 µM (inactive) in the experiment on SK-MEL-2; 34.3 µM (inactive) with KM12. Moreover, the GI50 with COLO 205 was 58.2 µM (inactive); in the experiment with CAKI-1, 58.2 µM (inactive); in the experiment on Malme-3M it was 25.7 µM (inactive); in the experiment with SF-295, 42.2 µM (inactive); with MDA-MB-435, 82.4 µM (inactive); in the experiment on U-251, 35.3 µM (inactive). For the same molecule, the GI50 with NCI-H226 is 39.4 µM (inactive); in the experiment on HL-60, 56.6 µM (inactive); in the experiment with DU-145 it was 80.5 µM (inactive); in the experiment with OVCAR-5 it was > 100 µM (inactive); in the experiment on HOP-92, 28.4 µM (inactive); with MDA-MB-231, 92.5 µM (inactive). Besides, the GI50 with SR was 17.9 µM (inactive).

As for `C=C1CC(Cn2cc(Br)c(=O)[nH]c2=O)(c2ccc(-c3ccccc3)cc2)OC1=O` (centres undefined), the GI50 was 0.341 µM (active) in the experiment with SW-620; 2 µM (inactive) in the experiment on T47D; 0.582 µM (active) with LOX IMVI; 1.83 µM (inactive) in the experiment on ACHN; 1.49 µM (inactive) in the experiment with SK-MEL-2; 1.52 µM (inactive) in the experiment with KM12. For the same molecule, the GI50 in the experiment with COLO 205 is 0.621 µM (active); in the experiment on CAKI-1 it was 1.13 µM (inactive); in the experiment on Malme-3M, 1.56 µM (inactive); in the experiment on SF-295 it was 4.45 µM (inactive); in the experiment on MDA-MB-435, 1.35 µM (inactive); in the experiment on U-251, 5.92 µM (inactive). Moreover, the GI50 in the experiment with NCI-H226 is 1.83 µM (inactive); in the experiment with HL-60 it was 0.0975 µM (active); in the experiment with DU-145 it was 1.66 µM (inactive); with OVCAR-5 it was 4.8 µM (inactive); in the experiment on HOP-92, 0.0308 µM (active); with MDA-MB-231, 3.08 µM (inactive). The GI50 in the experiment with SR was 0.32 µM (active).

The record behind these values is ChEMBL document CHEMBL1201862, “PubChem BioAssay data set” (2004).
